In PubChem BioAssay AID1259407 (Chemical Carcinogenesis Research Information System (CCRIS), 2018):
Calls of active or inactive are those of the source. The rule behind the calls is not given here.

Test system: CCRIS mutagenicity, Ames/micronucleus/aberration tests
Test: CCRIS mutagenicity studies

## O=NN1CCCCC1
Test System: AMES SALMONELLA TYPHIMURIUM, Strain/Indicator: TA98, Metabolic Activation: HAMSTER, LIVER, S-9, AROCLOR 1254 (10%), Method: PREINCUBATION
  mutagenic call: active; positive
Test System: AMES SALMONELLA TYPHIMURIUM, Strain/Indicator: TA98, Metabolic Activation: HAMSTER, LIVER, S-9, AROCLOR 1254 (10%), Method: STANDARD PLATE
  mutagenic call: active; positive
Test System: AMES SALMONELLA TYPHIMURIUM, Strain/Indicator: TA98, Metabolic Activation: HAMSTER, LIVER, S-9, AROCLOR 1254, Method: PREINCUBATION
  mutagenic call: active; positive
Test System: AMES SALMONELLA TYPHIMURIUM, Strain/Indicator: TA98, Metabolic Activation: HAMSTER, LIVER, S-9, AROCLOR 1254, Method: STANDARD PLATE
  mutagenic call: active; positive
Test System: AMES SALMONELLA TYPHIMURIUM, Strain/Indicator: TA98, Metabolic Activation: NONE, Method: PREINCUBATION
  mutagenic call: inactive; negative
Test System: AMES SALMONELLA TYPHIMURIUM, Strain/Indicator: TA98, Metabolic Activation: NONE, Method: STANDARD PLATE
  mutagenic call: inactive; negative
Test System: AMES SALMONELLA TYPHIMURIUM, Strain/Indicator: TA98, Metabolic Activation: RAT, LIVER, S-9, AROCLOR 1254 (10%), Method: PREINCUBATION
  mutagenic call: inactive; negative
Test System: AMES SALMONELLA TYPHIMURIUM, Strain/Indicator: TA98, Metabolic Activation: RAT, LIVER, S-9, AROCLOR 1254 (10%), Method: STANDARD PLATE
  mutagenic call: inactive; negative
Test System: AMES SALMONELLA TYPHIMURIUM, Strain/Indicator: TA98, Metabolic Activation: RAT, LIVER, S-9, AROCLOR 1254, Method: PREINCUBATION
  mutagenic call: inactive; negative
Test System: AMES SALMONELLA TYPHIMURIUM, Strain/Indicator: TA98, Metabolic Activation: RAT, LIVER, S-9, AROCLOR 1254, Method: STANDARD PLATE
  mutagenic call: inactive; negative
Test System: AMES SALMONELLA TYPHIMURIUM, Strain/Indicator: TA100, Metabolic Activation: HAMSTER, LIVER, S-9, AROCLOR 1254 (10%), Method: PREINCUBATION
  mutagenic call: active; positive
Test System: AMES SALMONELLA TYPHIMURIUM, Strain/Indicator: TA100, Metabolic Activation: HAMSTER, LIVER, S-9, AROCLOR 1254 (10%), Method: STANDARD PLATE
  mutagenic call: active; positive
Test System: AMES SALMONELLA TYPHIMURIUM, Strain/Indicator: TA100, Metabolic Activation: HAMSTER, LIVER, S-9, AROCLOR 1254, Method: PREINCUBATION
  mutagenic call: active; positive
Test System: AMES SALMONELLA TYPHIMURIUM, Strain/Indicator: TA100, Metabolic Activation: HAMSTER, LIVER, S-9, Method: PREINCUBATION
  mutagenic call: active; positive
Test System: AMES SALMONELLA TYPHIMURIUM, Strain/Indicator: TA100, Metabolic Activation: HUMAN, LIVER, S-9, Method: PREINCUBATION
  mutagenic call: active; positive
Test System: AMES SALMONELLA TYPHIMURIUM, Strain/Indicator: TA100, Metabolic Activation: MOUSE, LIVER, S-9, Method: PREINCUBATION
  mutagenic call: active; positive
Test System: AMES SALMONELLA TYPHIMURIUM, Strain/Indicator: TA100, Metabolic Activation: NONE, Method: PREINCUBATION
  mutagenic call: inactive; negative
Test System: AMES SALMONELLA TYPHIMURIUM, Strain/Indicator: TA100, Metabolic Activation: NONE, Method: STANDARD PLATE
  mutagenic call: inactive; negative
Test System: AMES SALMONELLA TYPHIMURIUM, Strain/Indicator: TA100, Metabolic Activation: RABBIT, LIVER, S-9, Method: STANDARD PLATE
  mutagenic call: inactive; negative
Test System: AMES SALMONELLA TYPHIMURIUM, Strain/Indicator: TA100, Metabolic Activation: RABBIT, LUNG, S-9, Method: STANDARD PLATE
  mutagenic call: active; positive
Test System: AMES SALMONELLA TYPHIMURIUM, Strain/Indicator: TA100, Metabolic Activation: RABBIT, NASAL, S-9, Method: STANDARD PLATE
  mutagenic call: inactive; negative
Test System: AMES SALMONELLA TYPHIMURIUM, Strain/Indicator: TA100, Metabolic Activation: RAT, LIVER, S-9, AROCLOR 1254 (10%), Method: PREINCUBATION
  mutagenic call: active; positive
Test System: AMES SALMONELLA TYPHIMURIUM, Strain/Indicator: TA100, Metabolic Activation: RAT, LIVER, S-9, AROCLOR 1254 (10%), Method: STANDARD PLATE
  mutagenic call: inactive; negative
Test System: AMES SALMONELLA TYPHIMURIUM, Strain/Indicator: TA100, Metabolic Activation: RAT, LIVER, S-9, AROCLOR 1254, Method: PREINCUBATION
  mutagenic call: active; positive
Test System: AMES SALMONELLA TYPHIMURIUM, Strain/Indicator: TA100, Metabolic Activation: RAT, LIVER, S-9, AROCLOR 1254, Method: STANDARD PLATE
  mutagenic call: inactive; negative
Test System: AMES SALMONELLA TYPHIMURIUM, Strain/Indicator: TA100, Metabolic Activation: RAT, LUNG, S-9, Method: STANDARD PLATE
  mutagenic call: inactive; negative
Test System: AMES SALMONELLA TYPHIMURIUM, Strain/Indicator: TA100, Metabolic Activation: RAT, NASAL, S-9, Method: STANDARD PLATE
  mutagenic call: active; positive
Test System: AMES SALMONELLA TYPHIMURIUM, Strain/Indicator: TA100, Metabolic Activation: TOBACCO CELLS, Method: PREINCUBATION
  mutagenic call: inactive; negative
Test System: AMES SALMONELLA TYPHIMURIUM, Strain/Indicator: TA104, Metabolic Activation: RAT, LIVER, S-9, AROCLOR 1254, Method: PREINCUBATION
  mutagenic call: active; positive
Test System: AMES SALMONELLA TYPHIMURIUM, Strain/Indicator: TA1530, Metabolic Activation: RAT LIVER, CYTOSOL, ISONIAZID, Method: PREINCUBATION
  mutagenic call: inactive; negative
Test System: AMES SALMONELLA TYPHIMURIUM, Strain/Indicator: TA1530, Metabolic Activation: RAT LIVER, MICROSOMES, ISONIAZID, Method: PREINCUBATION
  mutagenic call: active; positive
Test System: AMES SALMONELLA TYPHIMURIUM, Strain/Indicator: TA1530, Metabolic Activation: RAT, LIVER, S-9, Method: STANDARD PLATE
  mutagenic call: active; positive
Test System: AMES SALMONELLA TYPHIMURIUM, Strain/Indicator: TA1535, Metabolic Activation: HAMSTER, LIVER, S-9, AROCLOR 1254 (10%), Method: PREINCUBATION
  mutagenic call: active; positive
Test System: AMES SALMONELLA TYPHIMURIUM, Strain/Indicator: TA1535, Metabolic Activation: HAMSTER, LIVER, S-9, AROCLOR 1254, Method: PREINCUBATION
  mutagenic call: active; positive
Test System: AMES SALMONELLA TYPHIMURIUM, Strain/Indicator: TA1535, Metabolic Activation: NONE, Method: PREINCUBATION
  mutagenic call: inactive; negative
Test System: AMES SALMONELLA TYPHIMURIUM, Strain/Indicator: TA1535, Metabolic Activation: RAT, LIVER, S-9, AROCLOR 1254 (10%), Method: PREINCUBATION
  mutagenic call: active; positive
Test System: AMES SALMONELLA TYPHIMURIUM, Strain/Indicator: TA1535, Metabolic Activation: RAT, LIVER, S-9, AROCLOR 1254, Method: PREINCUBATION
  mutagenic call: active; positive
Test System: AMES SALMONELLA TYPHIMURIUM, Strain/Indicator: TA1535, Metabolic Activation: RAT, LIVER, S-9, Method: STANDARD PLATE
  mutagenic call: active; positive
Test System: AMES SALMONELLA TYPHIMURIUM, Strain/Indicator: TA1537, Metabolic Activation: HAMSTER, LIVER, S-9, AROCLOR 1254 (10%), Method: PREINCUBATION
  mutagenic call: inactive; negative
Test System: AMES SALMONELLA TYPHIMURIUM, Strain/Indicator: TA1537, Metabolic Activation: HAMSTER, LIVER, S-9, AROCLOR 1254, Method: PREINCUBATION
  mutagenic call: inactive; negative
Test System: AMES SALMONELLA TYPHIMURIUM, Strain/Indicator: TA1537, Metabolic Activation: NONE, Method: PREINCUBATION
  mutagenic call: inactive; negative
Test System: AMES SALMONELLA TYPHIMURIUM, Strain/Indicator: TA1537, Metabolic Activation: RAT, LIVER, S-9, AROCLOR 1254 (10%), Method: PREINCUBATION
  mutagenic call: inactive; negative
Test System: AMES SALMONELLA TYPHIMURIUM, Strain/Indicator: TA1537, Metabolic Activation: RAT, LIVER, S-9, AROCLOR 1254, Method: PREINCUBATION
  mutagenic call: inactive; negative
Test System: AMES SALMONELLA TYPHIMURIUM, Strain/Indicator: TA1538, Metabolic Activation: HAMSTER, LIVER, S-9, AROCLOR 1254 (10%), Method: PREINCUBATION
  mutagenic call: inactive; negative
Test System: AMES SALMONELLA TYPHIMURIUM, Strain/Indicator: TA1538, Metabolic Activation: HAMSTER, LIVER, S-9, AROCLOR 1254, Method: PREINCUBATION
  mutagenic call: inactive; negative
Test System: AMES SALMONELLA TYPHIMURIUM, Strain/Indicator: TA1538, Metabolic Activation: NONE, Method: PREINCUBATION
  mutagenic call: inactive; negative
Test System: AMES SALMONELLA TYPHIMURIUM, Strain/Indicator: TA1538, Metabolic Activation: RAT, LIVER, S-9, AROCLOR 1254 (10%), Method: PREINCUBATION
  mutagenic call: inactive; negative
Test System: AMES SALMONELLA TYPHIMURIUM, Strain/Indicator: TA1538, Metabolic Activation: RAT, LIVER, S-9, AROCLOR 1254, Method: PREINCUBATION
  mutagenic call: inactive; negative
Test System: AMES SALMONELLA TYPHIMURIUM, Strain/Indicator: TA1975, Metabolic Activation: RAT, LIVER, S-9, AROCLOR 1254, Method: PREINCUBATION
  mutagenic call: active; positive
Test System: UDS RODENT CELLS, Strain/Indicator: THY INCORP (NON-S-PHASE), Metabolic Activation: NONE, Method: LIQUID SCINTILLATION COUNTING
  mutagenic call: inactive; negative
Test System: UDS RODENT CELLS, Strain/Indicator: THY INCORP (NON-S-PHASE), Metabolic Activation: RAT, LIVER, S-9, SODIUM PHENOBARBITAL, Method: LIQUID SCINTILLATION COUNTING
  mutagenic call: active; positive
